The source of these data is PMC10733307, “Dual species sphingosine-1-phosphate lyase inhibitors to combine antifungal and anti-inflammatory activities in cystic fibrosis: a feasibility study” (Scientific Reports, 2023).

For series [1], the system named is N[C@@H](COP(=O)(O)O)[C@H](O)CCOc1ccc2ccc(=O)oc2c1. Briefly: purified protein. The note with it: 100 mM Hepes pH 7.4, 0.1 mM EDTA, 0.05% Triton X-100, 100 μM PLP, 37 °C.
The target in series [2] is T1, AfuSPL (Aspergillus fumigatus, UniProt Q4WPU3).
T1 construct: gene AFUA_4G10470; cytosolic catalytic domain, Δ1-81, C-terminal His tag, pET28, E. coli BL21 with GroEL/GroES (pGro7), about 50 kDa subunit, dimer
T1 sequence (Q4WPU3 82-572): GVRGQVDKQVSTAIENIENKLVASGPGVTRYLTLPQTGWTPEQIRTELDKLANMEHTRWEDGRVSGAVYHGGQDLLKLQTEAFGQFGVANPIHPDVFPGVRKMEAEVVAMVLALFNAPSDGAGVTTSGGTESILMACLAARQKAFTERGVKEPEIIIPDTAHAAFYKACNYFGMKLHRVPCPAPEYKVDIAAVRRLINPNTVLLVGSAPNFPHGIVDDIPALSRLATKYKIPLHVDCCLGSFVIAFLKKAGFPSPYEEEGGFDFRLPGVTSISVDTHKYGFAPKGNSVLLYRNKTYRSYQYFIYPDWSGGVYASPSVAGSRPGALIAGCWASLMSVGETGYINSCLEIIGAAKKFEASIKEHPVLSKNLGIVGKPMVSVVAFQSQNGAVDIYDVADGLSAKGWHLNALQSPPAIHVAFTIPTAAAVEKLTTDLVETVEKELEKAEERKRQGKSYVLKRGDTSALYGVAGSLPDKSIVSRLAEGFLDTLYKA
Briefly: fluorimetric lyase assay, global fit to competitive inhibition model. In kind it is biochemical. An excerpt: fluorimetric lyase assay, global fit to competitive inhibition model on AfuSPL | From a global fitting of the data we estimated their KI values

Series [3] concerns the target T2, hSPL (Homo sapiens, UniProt O95470).
T2 construct: gene SGPL1
T2 sequence (O95470 81-568): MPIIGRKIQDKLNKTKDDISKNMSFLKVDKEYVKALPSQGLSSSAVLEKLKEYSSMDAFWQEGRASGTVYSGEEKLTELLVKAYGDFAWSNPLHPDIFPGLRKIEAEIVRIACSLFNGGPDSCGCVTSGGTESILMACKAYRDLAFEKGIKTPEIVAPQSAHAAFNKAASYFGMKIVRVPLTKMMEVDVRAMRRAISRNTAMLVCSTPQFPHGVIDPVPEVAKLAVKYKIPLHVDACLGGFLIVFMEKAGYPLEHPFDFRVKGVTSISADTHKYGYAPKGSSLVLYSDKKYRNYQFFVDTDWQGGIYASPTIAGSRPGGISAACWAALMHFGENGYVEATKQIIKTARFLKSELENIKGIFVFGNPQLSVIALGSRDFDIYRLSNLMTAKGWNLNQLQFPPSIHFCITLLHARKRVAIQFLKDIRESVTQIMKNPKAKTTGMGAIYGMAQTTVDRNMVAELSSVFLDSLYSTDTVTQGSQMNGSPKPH
The series is described as above. In kind it is biochemical. An excerpt: fluorimetric lyase assay, global fit to competitive inhibition model on hSPL | From a global fitting of the data we estimated their KI values

The target of series [4] is T1, AfuSPL. Briefly: fluorimetric lyase assay. It counts as biochemical. The note with it: 1 mM inhibitor, fluorogenic S1P substrate, pH 7.4, 37 °C.

For AfuSPL (Aspergillus fumigatus Af293), in series [1], the Michaelis-Menten constant (Km) (as a rule, the substrate concentration at which the rate is half of its maximum) was found to be 3.1 ± 0.4 mM; the kcat (in general, the number of substrate molecules converted per active site and unit of time at saturation) worked out at 0.103 ± 0.007 s⁻¹.

Take `CCCOC(=O)c1c(NC(=O)CCCC(=O)Nc2sc3c(c2C(=O)OCCC)CCCCC3)sc2c1CCCCC2` [C17]: the inhibition constant (Ki) (as a rule, the dissociation constant of the complex between target and ligand, obtained from inhibition or displacement) was 270 ± 80 µM in series [2] and 240 ± 50 µM in series [3]. In the case of `C[C@@H]1CN(c2nnc(Cc3ccccc3)c3ccc(Cl)cc23)CCN1c1ccc(C#N)cn1` [30J, 6-[(2R)-4-(4-benzyl-7-chlorophthalazin-1-yl)-2-methylpiperazin-1-yl]pyridine-3-carbonitrile], the “% inhibition at 1 mM” value in series [4] is “without any significant effect on the activity of AfuSPL”.
